Earlier results, collected in US7198895B2, “In vitro cell-based methods for biological validation and pharmacological screening of chemical entities and biologicals” (priority 2000, dated 2007).

What was measured:
HepG2 cells = HepG2 cells exposed to cis-platinum; ref (17)
[1] = treated subjects

Row | SMILES | number of genes consistently differentially expressed (HepG2 cells) [genes] | number of genes differentially expressed (HepG2 cells) [genes] | life-threatening adverse event [1]
1 | N.N.[Cl][Pt][Cl] [cis-platinum] | 14 | ≥ 200 | 
2 | CCNC(C)Cc1cccc(C(F)(F)F)c1 (stereo not drawn) [Fenfluramine] |  |  | valvular fibrosis
